Target: human sodium ion channel 1.7 (hNav1.7) (Homo sapiens, UniProt Q15858)
Test: Blocking effect against sodium ion channel Nav1.7, IonFlux16 auto patch clamp in hNav1.7 HEK293 cells
Type: cell-based
Conditions: hNav1.7 HEK293 cells; inhibition of peak current after 50 seconds treatment; eight concentrations; read-out: IC50

Chain of human sodium ion channel 1.7 (hNav1.7) (Q15858 whole entry): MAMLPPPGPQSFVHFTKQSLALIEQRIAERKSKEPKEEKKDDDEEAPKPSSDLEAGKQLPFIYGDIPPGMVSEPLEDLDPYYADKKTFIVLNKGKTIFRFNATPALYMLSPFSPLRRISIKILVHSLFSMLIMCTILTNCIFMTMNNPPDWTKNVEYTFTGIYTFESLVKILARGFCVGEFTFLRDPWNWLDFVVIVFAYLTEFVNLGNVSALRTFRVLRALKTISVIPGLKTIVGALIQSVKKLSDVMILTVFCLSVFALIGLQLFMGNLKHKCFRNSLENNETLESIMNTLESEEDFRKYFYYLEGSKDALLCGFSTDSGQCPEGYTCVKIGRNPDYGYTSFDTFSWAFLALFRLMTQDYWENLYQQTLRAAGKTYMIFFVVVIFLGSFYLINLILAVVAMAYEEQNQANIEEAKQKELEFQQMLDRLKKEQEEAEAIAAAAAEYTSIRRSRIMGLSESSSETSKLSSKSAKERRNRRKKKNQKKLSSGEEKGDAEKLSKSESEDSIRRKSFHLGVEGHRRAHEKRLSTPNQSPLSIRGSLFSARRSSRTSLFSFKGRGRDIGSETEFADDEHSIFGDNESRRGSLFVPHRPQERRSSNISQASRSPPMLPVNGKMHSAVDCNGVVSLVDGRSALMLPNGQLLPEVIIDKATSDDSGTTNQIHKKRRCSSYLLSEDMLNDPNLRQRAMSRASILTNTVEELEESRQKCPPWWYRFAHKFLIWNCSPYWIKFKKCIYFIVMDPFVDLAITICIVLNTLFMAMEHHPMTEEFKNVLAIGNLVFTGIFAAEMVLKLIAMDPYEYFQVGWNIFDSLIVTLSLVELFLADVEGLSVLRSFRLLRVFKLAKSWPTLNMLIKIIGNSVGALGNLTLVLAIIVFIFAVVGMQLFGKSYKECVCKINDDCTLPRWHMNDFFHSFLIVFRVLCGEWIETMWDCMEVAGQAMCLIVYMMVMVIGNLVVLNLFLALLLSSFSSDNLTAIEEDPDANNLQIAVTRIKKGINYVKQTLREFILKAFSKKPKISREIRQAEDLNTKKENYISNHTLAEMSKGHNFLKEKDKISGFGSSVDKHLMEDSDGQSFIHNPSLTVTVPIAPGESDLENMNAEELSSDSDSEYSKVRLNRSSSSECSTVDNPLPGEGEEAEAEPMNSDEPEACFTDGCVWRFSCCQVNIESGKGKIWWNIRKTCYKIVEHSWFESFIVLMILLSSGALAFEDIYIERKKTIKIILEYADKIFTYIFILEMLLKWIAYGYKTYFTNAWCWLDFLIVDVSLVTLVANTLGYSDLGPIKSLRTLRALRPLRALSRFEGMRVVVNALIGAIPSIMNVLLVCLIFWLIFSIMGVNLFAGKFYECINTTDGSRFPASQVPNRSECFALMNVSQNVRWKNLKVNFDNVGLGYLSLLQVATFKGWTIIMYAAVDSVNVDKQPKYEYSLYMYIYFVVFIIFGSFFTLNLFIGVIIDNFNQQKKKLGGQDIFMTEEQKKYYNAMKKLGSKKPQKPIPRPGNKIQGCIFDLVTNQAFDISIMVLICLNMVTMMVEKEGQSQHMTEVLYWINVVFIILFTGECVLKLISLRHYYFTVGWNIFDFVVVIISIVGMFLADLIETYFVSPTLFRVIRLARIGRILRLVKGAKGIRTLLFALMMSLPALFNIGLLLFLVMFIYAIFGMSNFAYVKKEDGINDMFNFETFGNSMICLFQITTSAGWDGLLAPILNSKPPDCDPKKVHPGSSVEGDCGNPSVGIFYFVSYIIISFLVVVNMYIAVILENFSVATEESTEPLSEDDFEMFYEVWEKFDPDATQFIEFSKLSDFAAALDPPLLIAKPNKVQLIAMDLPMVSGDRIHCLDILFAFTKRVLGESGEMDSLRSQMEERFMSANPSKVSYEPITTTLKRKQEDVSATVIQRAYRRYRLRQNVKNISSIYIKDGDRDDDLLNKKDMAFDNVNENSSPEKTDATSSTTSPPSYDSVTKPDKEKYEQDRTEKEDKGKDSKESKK

Compound | IC50
CN(C)S(=O)(=O)NC(=O)c1cc(Cl)c(-n2nc(-c3ccc(Cl)cc3F)c3cc(Cl)ccc32)cc1F [Example 138, 5-chloro-4-(5-chloro-3-(4-chloro-2-fluorophenyl)-1H-indazol-1-yl)-N—(N,N-dimethylsulfamoyl)-2-fluorobenzamide] | 0.1 µM
CN(C(=O)c1cc(Cl)c(-n2nc(-c3ccc(Cl)cc3F)c3cc(Cl)ccc32)cc1F)S(C)(=O)=O [Example 139, 5-chloro-4-(5-chloro-3-(4-chloro-2-fluorophenyl)-1H-indazol-1-yl)-2-fluoro-N-methyl-N-(methylsulfonyl)benzamide] | 1.43 µM
CS(=O)(=O)N(Cc1ccc2ccccc2c1)C(=O)c1cc(Cl)c(-n2nc(Cl)c3cc(O)ccc32)cc1F [Example 140, 5-chloro-4-(3-chloro-5-hydroxy-1H-indazol-1-yl)-2-fluoro-N-(methylsulfonyl)-N-(naphthalen-2-ylmethyl)benzamide] | > 10 µM
CS(=O)(=O)N(Cc1ccc(F)cc1)C(=O)c1cc(Cl)c(-n2nc(Cl)c3cc(O)ccc32)cc1F [Example 141, 5-chloro-4-(3-chloro-5-hydroxy-1H-indazol-1-yl)-2-fluoro-N-(4-fluorobenzyl)-N-(methylsulfonyl)benzamide] | > 10 µM
CS(=O)(=O)NC(=O)c1cc(Cl)c(-n2nc(-c3ccc(Cl)cc3F)c3cc(F)ccc32)cc1F [Example 142, 5-chloro-4-(3-(4-chloro-2-fluorophenyl)-5-fluoro-1H-indazol-1-yl)-2-fluoro-N-(methylsulfonyl)benzamide] | 0.03 µM
CS(=O)(=O)NC(=O)c1cc(Cl)c(-n2nc(-c3ccccc3F)c3cc(F)ccc32)cc1F [Example 143, 5-chloro-2-fluoro-4-(5-fluoro-3-(2-fluorophenyl)-1H-indazol-1-yl)-N-(methylsulfonyl)benzamide] | 0.12 µM
CS(=O)(=O)NC(=O)c1cc(Cl)c(-n2nc(-c3ccccc3Cl)c3cc(F)ccc32)cc1F [Example 144, 5-chloro-4-(3-(2-chlorophenyl)-5-fluoro-1H-indazol-1-yl)-2-fluoro-N-(methylsulfonyl)benzamide] | 0.54 µM
CS(=O)(=O)NC(=O)c1cc(Cl)c(-n2nc(-c3ccccc3C(F)(F)F)c3cc(F)ccc32)cc1F [Example 145, 5-chloro-2-fluoro-4-(5-fluoro-3-(2-(trifluoromethyl)phenyl)-1H-indazol-1-yl)-N-(methylsulfonyl)benzamide] | 0.11 µM
COc1ccccc1-c1nn(-c2cc(F)c(C(=O)NS(C)(=O)=O)cc2Cl)c2ccc(F)cc12 [Example 146, 5-chloro-2-fluoro-4-(5-fluoro-3-(2-methoxyphenyl)-1H-indazol-1-yl)-N-(methylsulfonyl)benzamide] | 0.2 µM
Cc1ccccc1-c1nn(-c2cc(F)c(C(=O)NS(C)(=O)=O)cc2Cl)c2ccc(F)cc12 [Example 147, 5-chloro-2-fluoro-4-(5-fluoro-3-(o-tolyl)-1H-indazol-1-yl)-N-(methylsulfonyl)benzamide] | 0.06 µM
CS(=O)(=O)NC(=O)c1cc(Cl)c(-n2nc(-c3cccc(F)c3)c3cc(F)ccc32)cc1F [Example 148, 5-chloro-2-fluoro-4-(5-fluoro-3-(3-fluorophenyl)-1H-indazol-1-yl)-N-(methylsulfonyl)benzamide] | 0.09 µM
CS(=O)(=O)NC(=O)c1cc(Cl)c(-n2nc(-c3cccc(Cl)c3)c3cc(F)ccc32)cc1F [Example 149, 5-chloro-4-(3-(3-chlorophenyl)-5-fluoro-1H-indazol-1-yl)-2-fluoro-N-(methylsulfonyl)benzamide] | 0.04 µM
CS(=O)(=O)NC(=O)c1cc(Cl)c(-n2nc(-c3cccc(C(F)(F)F)c3)c3cc(F)ccc32)cc1F [Example 150, 5-chloro-2-fluoro-4-(5-fluoro-3-(3-(trifluoromethyl)phenyl)-1H-indazol-1-yl)-N-(methylsulfonyl)benzamide] | 0.18 µM
COc1cccc(-c2nn(-c3cc(F)c(C(=O)NS(C)(=O)=O)cc3Cl)c3ccc(F)cc23)c1 [Example 151, 5-chloro-2-fluoro-4-(5-fluoro-3-(3-methoxyphenyl)-1H-indazol-1-yl)-N-(methylsulfonyl)benzamide] | 0.08 µM
Cc1cccc(-c2nn(-c3cc(F)c(C(=O)NS(C)(=O)=O)cc3Cl)c3ccc(F)cc23)c1 [Example 152, 5-chloro-2-fluoro-4-(5-fluoro-3-(m-tolyl)-1H-indazol-1-yl)-N-(methylsulfonyl)benzamide] | 0.08 µM

Now from value to molecule:

IC50 | Compound
0.2 µM | CS(=O)(=O)NC(=O)c1cc(Cl)c(-n2nc(-c3ccc(F)cc3)c3cc(F)ccc32)cc1F [Example 153, 5-chloro-2-fluoro-4-(5-fluoro-3-(4-fluorophenyl)-1H-indazol-1-yl)-N-(methylsulfonyl)benzamide]
0.06 µM | CS(=O)(=O)NC(=O)c1cc(Cl)c(-n2nc(-c3ccc(Cl)cc3)c3cc(F)ccc32)cc1F [Example 154, 5-chloro-4-(3-(4-chlorophenyl)-5-fluoro-1H-indazol-1-yl)-2-fluoro-N-(methylsulfonyl)benzamide]
0.11 µM | COc1ccc(-c2nn(-c3cc(F)c(C(=O)NS(C)(=O)=O)cc3Cl)c3ccc(F)cc23)cc1 [Example 155, 5-chloro-2-fluoro-4-(5-fluoro-3-(4-methoxyphenyl)-1H-indazol-1-yl)-N-(methylsulfonyl)benzamide]
0.1 µM | Cc1ccc(-c2nn(-c3cc(F)c(C(=O)NS(C)(=O)=O)cc3Cl)c3ccc(F)cc23)cc1 [Example 156, 5-chloro-2-fluoro-4-(5-fluoro-3-(p-tolyl)-1H-indazol-1-yl)-N-(methylsulfonyl)benzamide]
0.1 µM | CS(=O)(=O)NC(=O)c1cc(Cl)c(-n2nc(-c3cc(F)cc(Cl)c3)c3cc(F)ccc32)cc1F [Example 157, 5-chloro-4-(3-(3-chloro-5-fluorophenyl)-5-fluoro-1H-indazol-1-yl)-2-fluoro-N-(methylsulfonyl)benzamide]
0.08 µM | CS(=O)(=O)NC(=O)c1cc(Cl)c(-n2nc(-c3ccc(F)cc3Cl)c3cc(F)ccc32)cc1F [Example 158, 5-chloro-4-(3-(2-chloro-4-fluorophenyl)-5-fluoro-1H-indazol-1-yl)-2-fluoro-N-(methylsulfonyl)benzamide]
0.1 µM | CS(=O)(=O)NC(=O)c1cc(Cl)c(-n2nc(-c3ccc(F)cc3F)c3cc(F)ccc32)cc1F [Example 159, 5-chloro-4-(3-(2,4-difluorophenyl)-5-fluoro-1H-indazol-1-yl)-2-fluoro-N-(methylsulfonyl)benzamide]
0.21 µM | CS(=O)(=O)NC(=O)c1cc(Cl)c(-n2nc(-c3cc(F)ccc3F)c3cc(F)ccc32)cc1F [Example 160, 5-chloro-4-(3-(2,5-difluorophenyl)-5-fluoro-1H-indazol-1-yl)-2-fluoro-N-(methylsulfonyl)benzamide]
0.12 µM | CS(=O)(=O)NC(=O)c1cc(Cl)c(-n2nc(-c3ccc(F)c(F)c3)c3cc(F)ccc32)cc1F [Example 161, 5-chloro-4-(3-(3,4-difluorophenyl)-5-fluoro-1H-indazol-1-yl)-2-fluoro-N-(methylsulfonyl)benzamide]
0.64 µM | CS(=O)(=O)NC(=O)c1cc(Cl)c(-n2nc(-c3c(F)cccc3Cl)c3cc(F)ccc32)cc1F [Example 162, 5-chloro-4-(3-(2-chloro-6-fluorophenyl)-5-fluoro-1H-indazol-1-yl)-2-fluoro-N-(methylsulfonyl)benzamide]
0.12 µM | CS(=O)(=O)NC(=O)c1cc(Cl)c(-n2nc(-c3cccc(Cl)c3F)c3cc(F)ccc32)cc1F [Example 163, 5-chloro-4-(3-(3-chloro-2-fluorophenyl)-5-fluoro-1H-indazol-1-yl)-2-fluoro-N-(methylsulfonyl)benzamide]
0.22 µM | CS(=O)(=O)NC(=O)c1cc(Cl)c(-n2nc(-c3ccc(Cl)c(F)c3)c3cc(F)ccc32)cc1F [Example 164, 5-chloro-4-(3-(4-chloro-3-fluorophenyl)-5-fluoro-1H-indazol-1-yl)-2-fluoro-N-(methylsulfonyl)benzamide]
5.49 µM | CS(=O)(=O)NC(=O)c1cc(Cl)c(-n2nc(-c3cccnc3)c3cc(F)ccc32)cc1F [Example 165, 5-chloro-2-fluoro-4-(5-fluoro-3-(pyridin-3-yl)-1H-indazol-1-yl)-N-(methylsulfonyl)benzamide]
0.228 µM | CS(=O)(=O)NC(=O)c1cc(Cl)c(-n2nc(-c3cccc(C#N)c3)c3cc(F)ccc32)cc1F [Example 166, 5-chloro-4-(3-(3-cyanophenyl)-5-fluoro-1H-indazol-1-yl)-2-fluoro-N-(methylsulfonyl)benzamide]
> 10 µM | CS(=O)(=O)NC(=O)c1ccc(-n2nc(-c3cccnc3)c3cc(F)ccc32)c(C#N)c1 [Example 167, 3-cyano-4-(5-fluoro-3-(pyridin-3-yl)-1H-indazol-1-yl)-N-(methylsulfonyl)benzamide]
> 10 µM | CS(=O)(=O)NC(=O)c1ccc(-n2nc(-c3cccc(C#N)c3)c3cc(F)ccc32)c(C#N)c1 [Example 168, 3-cyano-4-(3-(3-cyanophenyl)-5-fluoro-1H-indazol-1-yl)-N-(methylsulfonyl)benzamide]
0.18 µM | COc1ccc2c(c1)c(-c1ccc(Cl)cc1F)nn2-c1cc(F)c(C(=O)NS(C)(=O)=O)cc1Cl [Example 169, 5-chloro-4-(3-(4-chloro-2-fluorophenyl)-5-methoxy-1H-indazol-1-yl)-2-fluoro-N-(methylsulfonyl)benzamide]
0.07 µM | CS(=O)(=O)NC(=O)c1cc(Cl)c(-n2nc(-c3cccc(Cl)c3)c3ccccc32)cc1F [Example 170, 5-chloro-4-(3-(3-chlorophenyl)-1H-indazol-1-yl)-2-fluoro-N-(methylsulfonyl)benzamide]
0.19 µM | CS(=O)(=O)NC(=O)c1cc(Cl)c(-n2nc(-c3cccc(F)c3)c3ccccc32)cc1F [Example 171, 5-chloro-2-fluoro-4-(3-(3-fluorophenyl)-1H-indazol-1-yl)-N-(methylsulfonyl)benzamide]
0.14 µM | CS(=O)(=O)NC(=O)c1cc(Cl)c(-n2nc(-c3cccc(C(F)(F)F)c3)c3ccccc32)cc1F [Example 172, 5-chloro-2-fluoro-N-(methylsulfonyl)-4-(3-(3-(trifluoromethyl)phenyl)-1H-indazol-1-yl)benzamide]

Reference: patent publication US10590078B2, “Sodium channel blockers” (Daewoong Pharmaceutical Co., Ltd., priority 2015, dated 2020)
